The text below walks through data of US6868343B1, “Interactions between substances and surfaces that are made up of amphiphilic molecules” (NIMBUS Biotechnologie GmbH, priority 1998, dated 2005).

Data set [1] is described as follows: Partition coefficient between solid-supported membrane C (DEPC) and aqueous compartment, UV/Vis at 304 nm. The settings on record: pH 7.4, tetracaine 25 μm, buffer A. Type of data set: physicochemical. An excerpt:
The process for determining lipid binding constants with the aid of solid, biocompatible surfaces can also be used for pharmaceuticals. […] For an analyzing the partition coefficient of this pharmaceutical between the lipid and water phases, as described in example 1, porous silicate structures are coated with a charge-neutral membrane of 99.97 mole % zwitterionic lecithin 1,2-dielaidoyl-sn-3-glycero-3-phosphocholine (DEPC) and 0.03 mole % fluorescence marker 1-hexadecanoyl-2-(-pyrenedecanoyl)-sn-glycero-3-phosphocholine (hereinafter called membrane C).
The active agent tetracaine to be analyzed is placed in double sample form in aqueous solution (buffer A) in a constant concentration of 25 μm and mixed with different quantities of membrane C (concentration range of the lipid 5*10^−5−2*10^−3 mole/l). […] The free active agent concentration in the supernatant material can be rapidly determined in the case of the UV-active compound tetracaine with the aid of UV/Vis spectroscopy (detection at 304 nm). Alternatively the remaining lipid-free supernatant materials can be analyzed using chromatographic methods (HPLC, gas chromatography, etc.). […]
The partition coefficient found for tetracaine between the solid-supported membrane C and the aqueous compartment at the physiologically relevant pH-value 7.4 is 1.4. The binding constants are calculated according to standard procedures.

The nature of data set [2]: Membrane-water distribution by HPLC on solid-supported egg lecithin bilayer (column A1). Type of data set: physicochemical. The settings on record: column A1, pH 7.4, 23° C., calculated from retention time via calibration curve; read-out: logDcal-PC, pH 7.4.
Description: A natural mixture of egg lecithin and 0.03 mole % fluorescence marker 1-hexadecanoyl-2-(1-pyrenedecanoyl)-sn-glycero-3-phosphocholine is suspended in chloroform and the solvent completely removed in vacuo. The lipids are subsequently dispersed in the aqueous buffer (pH 7.4) and small, unilamellar vesicles are produced by ultrasonic treatment. By mixing with spherical, porous silicate structures (silicate gel with 10 μm sphere diameter and 400 nm pore size) at temperatures higher than the Tm of the lipids, the corresponding solid-supported lipid bilayer is obtained by the spontaneous fusion of the vesicles on the silicate surface. […]
For determining the dead time t0 in the selected system, 5 μl of a 5 mM potassium iodide solution is injected into buffer A. In the case of the HPLC column A1 in reproducible manner a t0 of 0.64 min is measured and for column A2 t0=0.58 min. […]
The quantities of compound to be injected are determined on the one hand by its adsorption tendency on the stationary phase and on the other by the detectability of the compound. As a rule most reference compounds can be detected using spectroscopic methods (here UV/V is spectroscopy at 210 nm). The measured retention times tR are directly correlated with the octanol/water partition coefficient using a prior art equation system. […]
In the present example logD cal-PC, pH 7.4 is determined.

Turning to `CCCCNc1ccc(C(=O)OCCN(C)C)cc1` [tetracaine], the “partition coefficient between solid-supported membrane C and aqueous compartment” value in data set [1] turned out to be 1.4. Take `CC(=O)CC(c1ccccc1)c1c(O)c2ccccc2oc1=O` (centres unmarked) [Warfarin, 3-(-acetonylbenzyl)-4-hydroxycoumarin]: in data set [2], the chromatographic logD was 1.1.
